# Source: patent US20180200257A1, “METHODS FOR THE TREATMENT OF INFLAMMATORY DISORDERS” (Galapagos NV, priority 2015, published 2018)
# System: Subjects With Active Crohn's Disease With Evidence of Mucosal Ulceration
# Test: Study 3 - SES-CD endoscopic scores
# Assay type: in vivo, human
# Conditions: 200 mg, LOCF; for Deep remission (CDAI score < 150 points, SES-CD score ≤ 4, ulcerated subscore ≤ 1 in all 5 segments) / Endoscopic remission (SES-CD % improvement ≤ 4, ulcerated subscore ≤ 1 in all 5 segments) / Endoscopic response (SES-CD % improvement ≥ 50) / Mucosal healing (SES-CD % = 0): 10 weeks
# Text: Double-Blind, Randomized, Placebo-Controlled, Multi-Centre Study to Investigate the Efficacy and Safety of Compound 1 in Subjects With Active Crohn's Disease With Evidence of Mucosal Ulceration. This is a double-blind, randomized, placebo-controlled, multi-centre Phase 2 study to investigate the efficacy and safety of Compound 1 administered once daily for the treatment of active CD with evidence of mucosal ulceration. The pharmacokinetics (including a PK substudy) and pharmacodynamics of Compound 1 and metabolite in CD will also be characterised. A total of 180 eligible subjects will be randomized to receive Compound 1 or placebo in addition to their stable background treatment (eg, corticosteroids, aminosalicylates, or CD-related antibiotics). The study will consist of 2 parts, with total treatment duration of 20 weeks. Randomization in Part 1 will be stratified according the subject's previous anti-TNF exposure/response, CRP level at Screening, and oral corticosteroid use at visit Day −1. After the first 10 weeks of treatment in Part 1, patients will be re-randomized for Part 2 as shown in the diagram below and will be stratified according to the subject's clinical response, previous anti-TNF exposure/response, and oral corticosteroid use at visit Day -1. [table] For the evaluation of disease severity the Crohn's Disease Index of Severity (CDEIS), and the Simple Endoscopic Score for Crohn's Disease (SES-CD) may be used. These are validated scores for the measurement of endoscopic findings, (Sipponen et al, 2010). For the SES-CD, four endoscopic variables in the five segments are scored from 0-3: Variable “presence and size of ulcers” is scored 0 when no ulcers are present, small ulcers (diameter 0.1-0.5 cm) are scored 1, medium-sized ulcers (diameter 0.5-2 cm) 2, and large ulcers (>2 cm) 3. Variable “extent of ulcerated surface” is scored 0 when no ulcers were present, 1 when extent was <10%, 2 when extent is 10%-30%, and 3 when it is >30%. The variable extent of affected surface is scored 0 if none, 1 when <50%, 2 when 50%-75%, and 3 when >75%. The presence and type of narrowings is scored 0 when no narrowings are present, a single passable narrowing is scored 1, multiple passable narrowings are scored 2, and a nonpassable narrowing is scored 3.
# [1] = Anti-TNF experienced non-responders
# [2] = baseline corticosteroid use: with steroids
# [3] = baseline corticosteroid use: without steroids
compound,measurement,setting,value
"O=C(Nc1nc2cccc(-c3ccc(CN4CCS(=O)(=O)CC4)cc3)n2n1)C1CC1 [Compound 1, cyclopropanecarboxylic acid {5-[4-(1,1-dioxo-thiomorpholin-4-ylmethyl)-phenyl]-[1,2,4]triazolo[1,5-a]pyridin-2-yl}-amide]","Deep remission (CDAI score < 150 points, SES-CD score ≤ 4, ulcerated subscore ≤ 1 in all 5 segments)",Anti-TNF Naïve,0%
same,"Endoscopic remission (SES-CD % improvement ≤ 4, ulcerated subscore ≤ 1 in all 5 segments)",Anti-TNF Naïve,16%
same,Endoscopic response (SES-CD % improvement ≥ 50),Anti-TNF Naïve,28%
same,Mucosal healing (SES-CD % = 0),Anti-TNF Naïve,0%
same,"Deep remission (CDAI score < 150 points, SES-CD score ≤ 4, ulcerated subscore ≤ 1 in all 5 segments)",[1],6%
same,"Endoscopic remission (SES-CD % improvement ≤ 4, ulcerated subscore ≤ 1 in all 5 segments)",[1],12%
same,Endoscopic response (SES-CD % improvement ≥ 50),[1],23%
same,Mucosal healing (SES-CD % = 0),[1],1%
same,"Deep remission (CDAI score < 150 points, SES-CD score ≤ 4, ulcerated subscore ≤ 1 in all 5 segments)",[2],0%
same,"Endoscopic remission (SES-CD % improvement ≤ 4, ulcerated subscore ≤ 1 in all 5 segments)",[2],12%
same,Endoscopic response (SES-CD % improvement ≥ 50),[2],22%
same,Mucosal healing (SES-CD % = 0),[2],0%
same,"Deep remission (CDAI score < 150 points, SES-CD score ≤ 4, ulcerated subscore ≤ 1 in all 5 segments)",[3],5%
same,"Endoscopic remission (SES-CD % improvement ≤ 4, ulcerated subscore ≤ 1 in all 5 segments)",[3],15%
same,Endoscopic response (SES-CD % improvement ≥ 50),[3],28%
same,Mucosal healing (SES-CD % = 0),[3],5%
same,"Deep remission (CDAI score < 150 points, SES-CD score ≤ 4, ulcerated subscore ≤ 1 in all 5 segments)",overall,8%
same,"Endoscopic remission (SES-CD % improvement ≤ 4, ulcerated subscore ≤ 1 in all 5 segments)",overall,14%
same,Endoscopic response (SES-CD % improvement ≥ 50),overall,25%
same,Mucosal healing (SES-CD % = 0),overall,2%
same,"Deep remission (CDAI score < 150 points, SES-CD score ≤ 4, ulcerated subscore ≤ 1 in all 5 segments)",screening CRP ≤ 10 ml/L,10%
same,"Endoscopic remission (SES-CD % improvement ≤ 4, ulcerated subscore ≤ 1 in all 5 segments)",screening CRP ≤ 10 ml/L,16%
same,Endoscopic response (SES-CD % improvement ≥ 50),screening CRP ≤ 10 ml/L,23%
same,Mucosal healing (SES-CD % = 0),screening CRP ≤ 10 ml/L,3%
same,"Deep remission (CDAI score < 150 points, SES-CD score ≤ 4, ulcerated subscore ≤ 1 in all 5 segments)",screening CRP ≥ 10 mg/L,0%
same,"Endoscopic remission (SES-CD % improvement ≤ 4, ulcerated subscore ≤ 1 in all 5 segments)",screening CRP ≥ 10 mg/L,0%
same,Endoscopic response (SES-CD % improvement ≥ 50),screening CRP ≥ 10 mg/L,28%
same,Mucosal healing (SES-CD % = 0),screening CRP ≥ 10 mg/L,0%
same,"SES-CD mean, baseline",Baseline,14.2
same,"SES-CD mean CFB, W 10",week 10,−2.6
same,"SES-CD mean, W 10",week 10,11.6
